Tests used:
[1] = tested on: subjects suffering from sudden sensorineural hearing loss (SSNHL); assay: Phase 2b/3 study: change in pure tone audiometry (PTA) from baseline in affected ear; type: in vivo, human
Description: (§1) A randomized, double-blind, placebo-controlled, parallel-group phase 2b/3 study was conducted with the aim to assess efficacy and safety of (R)-azasetron in subjects suffering from sudden sensorineural hearing loss. Treatment was administered for 4 weeks (i.e., 28 days) and the study was concluded with an 8-week follow-up at day 84.
(§2) Subjects were included in the study if they presented with sudden sensorineural hearing loss (SSNHL) and met the following criteria: • male or female, • aged at least 18 years old, • subjects with unilateral idiopathic SSNHL or unilateral/bilateral acute acoustic trauma leading to SSNHL defined by both: • at least one hearing threshold of 50 dB or more amongst the 3 most affected contiguous frequencies on pure tone audiometric air conduction testing performed 24 hours or less prior to first study drug intake, and • mean hearing loss of 30 dB or more, averaged across the 3 most affected contiguous frequencies on pure tone audiometric air conduction testing performed 24 hours or less prior to first study treatment, compared with the unaffected contralateral ear or reference values from a pre-existing audiogram (dated less than 2 years) • subjects with sudden hearing loss with onset within 96 hours prior to first study drug intake.
As indicated above, hearing loss was determined with pure tone audiometry (PTA) or pure tone audiometric testing, in particular with pure tone audiometric air conduction testing.
In the present study, pure tone air- and bone-conduction hearing thresholds were determined for each ear (best ear at first) at 0.25, 0.5, 1, 2, 3, 4, 6, and 8 kHz for air conduction and at 0.5, 1, 2, 3, 4 kHz for bone conduction, using the descending method of limits (modified Hughson Westlake procedure as follows: initial descent towards threshold is accomplished in 10-dB steps. Beginning with the first nonresponse, level is increased by 5-dB for each non-response and decreased by 10-dB after each correct detection response). The hearing threshold was defined as the lowest audible level, measured twice out of three presentations to the subject.
The baseline pure tone audiometry test was defined as the last test performed at site within 24 hours prior to the first study drug administration. The PTA was expressed as the average of the hearing threshold (in dB) of the 3 most affected contiguous test frequencies (air conduction). Therefore, a higher PTA corresponds to a higher hearing threshold and thus to a poorer hearing. Conversely, a lower PTA corresponds to a lower hearing threshold and thus to a better hearing.
The hearing loss was defined as the difference between the PTA expressed as the average of the hearing threshold (in dB) at the 3 most affected contiguous test frequencies (air pure tone average) and the corresponding PTA expressed as the average hearing threshold of the contralateral ear or values from a pre-existing audiogram (dated less than 2 years) for the same frequencies (mandatory for bilateral acute acoustic trauma). The contiguous frequencies used to determine the PTA at baseline remained fixed for all subsequent evaluations. In case of bilateral acute acoustic trauma leading to sudden sensorineural hearing loss, the most affected ear according to the inclusion criteria was considered for the analysis. If both ears were equally affected, the right ear was considered.
134 subjects were assessed for eligibility according to the criteria listed above. […]

[2] = tested on: subjects suffering from sudden sensorineural hearing loss (SSNHL); assay: Phase 2b/3 study: speech discrimination test, change in word recognition score (WRS) from baseline; type: in vivo, human; details: SENS-401 29 mg/BID
Description: as §1, §2
134 subjects were assessed for eligibility according to the criteria listed above. 115 subjects were randomized with a ratio 1:1:1 in the three following groups (i.e., treatment arms): • 38 subjects were included in the group administered for 28 days (i.e., 4 weeks) with placebo, • 38 subjects were included in the group administered for 28 days (i.e., 4 weeks) with a “low” dose of (R)-azasetron, defined as a total daily dose of 58 mg of (R)-azasetron (corresponding to a daily dose of 40 mg free base equivalent); and • 39 subjects were included in the group administered for 28 days (i.e., 4 weeks) with a “high” dose of (R)-azasetron, defined as a total daily dose of 87 mg of (R)-azasetron (corresponding to a daily dose of 60 mg free base equivalent).
Subjects were administered placebo or (R)-azasetron (also designated as SENS-401) for 28 days (i.e., 4 weeks). (R)-azasetron was administered orally twice a day either at a dose of 29 mg/BID (bis in die) or at a dose of 43.5 mg/BID (corresponding to a total daily dose of 40 mg and 60 mg free base equivalent, respectively).
Subjects included in the study were monitored with a first visit at day −4 to day 0 (screening), followed by a visit at day 1 (D1-randomization and inclusion day), day 7 (D7, ±2 days), day 14 (D14, ±2 days), day 28 (D28±3 days−end of treatment), and day 84 (D84±3 days-follow-up visit marking the end of study). Monitoring included audiometric tests (PTA), speech audiometry, numerical rating scales and questionnaires. Additionally, subjects included in the study were closely monitored for adverse events throughout the study.
Additionally, the efficacy of SENS-401 was also assessed by conducting speech audiometry, in particular by conducting a speech discrimination test (also known as word recognition test) to determine a word recognition score (WRS).
Speech discrimination or word recognition is the ability to repeat correctly an open set of monosyllabic words at supra threshold intensity (for example at 60 dB or at 80 dB). The word recognition score (WRS) is thus the percentage of test words correctly repeated by the subject. The test is administered in a quiet room without any competing noise. […]

[3] = day 28, SENS-401 high 43.5 mg/BID, subpopulation PTA at baseline ≥80 dB (idiopathic SSNHL, corticoids)
[4] = day 28, SENS-401 high 43.5 mg/BID, subpopulation PTA at baseline ≥90 dB (idiopathic SSNHL, corticoids)
[5] = day 28, SENS-401 low 29 mg/BID (40 mg/day free base equivalent), ITT overall study population, idiopathic SSNHL who received corticoids
[6] = day 28, SENS-401 low 29 mg/BID, subpopulation PTA at baseline ≥80 dB & initial frequency range ≤2000 Hz (idiopathic SSNHL, corticoids)
[7] = day 84, SENS-401 high 43.5 mg/BID (60 mg/day free base equivalent), overall study population, idiopathic SSNHL who received corticoids
[8] = day 84, SENS-401 high 43.5 mg/BID, subpopulation PTA at baseline ≥80 dB (idiopathic SSNHL, corticoids)
[9] = day 84, SENS-401 high 43.5 mg/BID, subpopulation PTA at baseline ≥90 dB (idiopathic SSNHL, corticoids)
[10] = day 84, SENS-401 high 43.5 mg/BID, subpopulation initial hearing loss ≥91 dB (ASHA Profound; idiopathic SSNHL, corticoids)
[11] = day 84, SENS-401 low 29 mg/BID (40 mg/day free base equivalent), ITT overall study population
[12] = day 84, SENS-401 low 29 mg/BID (40 mg/day free base equivalent), ITT overall study population, idiopathic SSNHL who received corticoids
[13] = day 84, SENS-401 low 29 mg/BID, subpopulation PTA at baseline ≥80 dB & initial frequency range ≤2000 Hz (idiopathic SSNHL, corticoids)
[14] = day 84, SENS-401 low 29 mg/BID, subpopulation initial frequency range ≤2000 Hz (of overall study population)
[15] = day 84, SENS-401 low 29 mg/BID, subpopulation initial hearing loss ≥91 dB (ASHA Profound; idiopathic SSNHL, corticoids)
[16] = day 84, SENS-401 low 29 mg/BID, subpopulation vertigo at baseline (idiopathic SSNHL, corticoids)

## CN1C(=O)COc2c(C(=O)N[C@H]3CN4CCC3CC4)cc(Cl)cc21 [SENS-401, (R)-azasetron besylate]
[1]; day 28, SENS-401 29 mg/BID (40 mg/day free base equivalent), subpopulation PTA at baseline ≥80 dB (idiopathic SSNHL, corticoids), in dB
  ΔPTA SENS-401 vs placebo: −15.2188
[1]; day 28, SENS-401 29 mg/BID (40 mg/day free base equivalent), subpopulation PTA at baseline ≥90 dB (idiopathic SSNHL, corticoids), in dB
  ΔPTA SENS-401 vs placebo: −13.9239
[1]; day 28, SENS-401 29 mg/BID, subpopulation hearing loss at baseline ≥91 dB (idiopathic SSNHL, corticoids)
  ΔPTA SENS-401 vs placebo: −19.8922 dB
[1]; day 28, SENS-401 29 mg/BID, subpopulation vertigo at baseline (idiopathic SSNHL, corticoids), in dB
  ΔPTA SENS-401 vs placebo: −14.0995
[1]; day 28, SENS-401 43.5 mg/BID, subpopulation hearing loss at baseline ≥91 dB (idiopathic SSNHL, corticoids), in dB
  ΔPTA SENS-401 vs placebo: −14.8893
[1]; day 28, SENS-401 high 43.5 mg/BID oral (60 mg/day free base equivalent) 28 days, ITT overall study population, idiopathic SSNHL who received corticoids
  Mean change in PTA from baseline: −41.8636 dB
[1]; [3]
  Mean change in PTA from baseline: −54.4635 dB
  ΔPTA SENS-401 vs placebo: −17.7765 dB
[1]; [4]
  Mean change in PTA from baseline: −53.6800 dB
  ΔPTA SENS-401 vs placebo: −23.2680 dB
[1]; [5]
  Mean change in PTA from baseline: −42.0761 dB
  ΔPTA SENS-401 vs placebo: −4.1236 dB
[1]; [6]
  Mean change in PTA from baseline: −59.0918 dB
  ΔPTA SENS-401 vs placebo: −21.7623 dB
[1]; day 84, SENS-401 29 mg/BID (40 mg/day free base equivalent), subpopulation PTA at baseline ≥80 dB (idiopathic SSNHL, corticoids), in dB
  ΔPTA SENS-401 vs placebo: −19.4991
[1]; day 84, SENS-401 29 mg/BID (40 mg/day free base equivalent), subpopulation PTA at baseline ≥90 dB (idiopathic SSNHL, corticoids), in dB
  ΔPTA SENS-401 vs placebo: −19.0242
[1]; [7]
  Mean change in PTA from baseline: −46.3161 dB
  ΔPTA SENS-401 vs placebo: −9.0984 dB
[1]; [8]
  Mean change in PTA from baseline: −61.2123 dB
  ΔPTA SENS-401 vs placebo: −25.6472 dB
[1]; [9]
  Mean change in PTA from baseline: −57.7398 dB
  ΔPTA SENS-401 vs placebo: −28.6788 dB
[1]; [10]
  Mean change in PTA from baseline: −44.9102 dB
  ΔPTA SENS-401 vs placebo: −26.2796 dB
[1]; [11]
  Mean change in PTA from baseline: −32.4686 dB
  ΔPTA SENS-401 vs placebo: −7.0694 dB
[1]; [12]
  Mean change in PTA from baseline: −45.9263 dB
  ΔPTA SENS-401 vs placebo: −8.7086 dB
[1]; [13]
  Mean change in PTA from baseline: −61.7417 dB
  ΔPTA SENS-401 vs placebo: −26.6903 dB
[1]; [14]
  Mean change in PTA from baseline: −44.6900 dB
  ΔPTA SENS-401 vs placebo: −11.6405 dB
[1]; [15]
  Mean change in PTA from baseline: −46.6683 dB
  ΔPTA SENS-401 vs placebo: −28.0377 dB
[1]; [16]
  Mean change in PTA from baseline: −44.8233 dB
  ΔPTA SENS-401 vs placebo: −21.8040 dB
[2]; day 28, subpopulation PTA at baseline ≥70 dB (of overall study population)
  ΔWRS SENS-401 vs placebo: 12.9673%
[2]; day 28, WRS assessed at 60 dB, subpopulation vertigo at baseline
  ΔWRS SENS-401 vs placebo: 35.5287%
[2]; day 28, WRS at 60 dB, overall study population
  ΔWRS SENS-401 vs placebo: 8.8241%
[2]; day 84, WRS assessed at 60 dB, subpopulation vertigo at baseline
  ΔWRS SENS-401 vs placebo: 53.1273%
[2]; day 84, WRS at 80 dB, subpopulation vertigo at baseline
  change in WRS from baseline (effect vs placebo, in words): significant beneficial effect

Reference: patent US20250170139A1, “AZASETRON FOR THE TREATMENT OF SUDDEN SENSORINEURAL HEARING LOSS” (SENSORION, priority 2022, published 2025)
